Results on two molecules are retold here after patent publication US20120035256A1, “Use of bipolar trans carotenoids as a pretreatment and in the treatment of peripheral vascular disease” (Diffusion Pharmaceuticals LLC, priority 2008, published 2012).

In experiment [1] the test system is atherosclerotic plaque formation. The settings on record: rabbits; Gainer and Chisolm, Atherosclerosis 19: 135-138, 1974; cited from earlier work.
Experiment [2] relates to focal cerebral ischemia (three vessel occlusion: both CCA and MCA). Briefly: Three vessel occlusion focal cerebral ischemic model. The class given is in vivo, rat. The source says:
Preconditioning or pretreating a patient (mammal including human) with a bipolar trans carotenoid is advisable for the following patients: • a patient at risk of an ischemic event; • a patient at risk of forming an embolism or blood clot in the blood vessels, the brain, the heart, or the lungs. The embolism can be fat globules (a fat embolism), air bubbles (an air embolism), talc embolism (often following drug abuse), septic emboli (containing pus and bacteria), atherosclerotic emboli, or amniotic fluid; • a patient at risk of stroke including a patient diagnosed with a blocked carotid artery or having suffered a transient ischemic attack (TIA). In Example 2, TSC was administered intravenously to rats 24 hours before the ischemic injury to the brain occurred. Sufficient time passed between the administration of TSC and the subsequent event so that the TSC would have been cleared from the system. The TSC was dissolved in water, and given over a period of an hour in the following manner. First a 0.1 ml bolus injection was given, then a slow infusion (0.6 ml given over 60 minutes) was given, and finally another 0.1 ml bolus was given. […] The occlusions were removed after 2 hours, and the infarct volume (core plus penumbra) was measured 24 hours later. […]
Trans-sodium crocetinate (0.091 mg/kg total dosage) or vehicle was administered intravenously as follows 1) 0.1 ml injection 2) continuous infusion of TSC at a rate of 0.01 ml/min for the next 60 minutes, and 3) a final 0.1 ml injection of TSC 30 minutes after the cessation of continuous infusion. […] Infarction volumes were measured 24 hours after the ischemic event.
The effects of TSC on focal ischemic injury were examined using adult male Sprague-Dawley rats, each of which weighed between 330 and 370 g. […] Rectal temperature was monitored continuously and maintained at 37° C. with a heating lamp. […]
Focal ischemic was performed by clipping (Sundt AVM microclip No 1, Codman & Shurtleff, Inc., Raynham, Mass.) the MCA at a point distal to the origin of the lenticulostriate arteries. […] After 24 hours, infarct volume was calculated. […]

Experiment [3] can be described thus: Rat transcutaneous oxygen (TCOM) study with 100% oxygen. The format is in vivo. The settings on record: male Sprague-Dawley rats breathing 100% oxygen, TSC injected into femoral vein, 45 minutes recording, FIG. 1. The procedure: For the rat TCOM studies, male Sprague-Dawley rats were used which weighed between 350 and 400 grams each. TCOM electrodes are attached to humans on the chest, on the leg, or on the top of the foot. Using a TCOM apparatus (Radiometer), the electrodes were attached to the shaven skin in the areas of the chest, the abdomen, and the thigh of the rats. Pure oxygen was then administered to the rats. The most reproducible results came from the electrode attached near the rat's abdomen, on the left or right side.
The rats were anesthetized (to quiet them) using IP injections of 80 mg/kg ketamine and 10 mg/kg xylazine.
After the animals were asleep, the abdomen area of the rat was shaved and the TCOM electrode collar was attached to that area. Using Dow Corning high vacuum silicone grease between the electrode collar and the skin was helpful in maintaining a good seal on the rat's skin.
After attaching the TCOM probe, the transcutaneous oxygen tension was then monitored for 30 minutes while the rat breathed room air. The rat was then switched to 100% oxygen and TSC was injected into the femoral vein. The TCOM readings were then recorded for an additional 45 minutes.

`CC(/C=C/C=C(\C)C(=O)O)=C\C=C\C=C(C)\C=C\C=C(/C)C(=O)O` [Crocetin]: the “Atherosclerotic plaque formation over time” value in experiment [1] is “reduction in atherosclerotic plaque formation”.
For `CC(/C=C/C=C(\C)C(=O)[O-])=C\C=C\C=C(C)\C=C\C=C(/C)C(=O)[O-].[Na+].[Na+]` [TSC, trans sodium crocetinate], the “Infarct volume (actual, adjusted for swelling)” value in experiment [2] (3VO+TSC group, TSC 0.091 mg/kg total i.v. 24 hours before 120 min ischemia, measured 24 hours after the ischemic event, mean±SEM, p<0.01 vs 3VO-only or 3VO+Vehicle) is 57.7±16.2 mm3. For the same molecule, in experiment [2] (TSC 0.091 mg/kg i.v. 24 hours before ischemic injury, occlusions removed after 2 hours, infarct volume measured 24 hours later), the “Reduction in infarct volume, preischemic treatment” value turned out to be 65%. In addition, the “Reduction in infarct volume, intraischemic treatment” value in experiment [2] (intraischemic treatment with TSC done previously in this model) is given as 58%. Also, the “TCOM reading (transcutaneous oxygen tension)” value in experiment [3] is on record as “additional increase in the TCOM reading”.
